{
  "source": "paper PMC8861568",
  "about": "“Identification of (Z)-2-benzylidene-dihydroimidazothiazolone derivatives as tyrosinase inhibitors: Anti-melanogenic effects and in silico studies” (Computational and Structural Biotechnology Journal, 2022)",
  "key": {"[1]": {"molecular_target": "mushroom tyrosinase (mTYR)", "experiment": "Mushroom tyrosinase inhibition assay", "format": "biochemical, Agaricus bisporus", "design": "Tyrosinase inhibition (%): dose or concentration left out as unconfirmed", "settings": "for IC50: mushroom tyrosinase; for IC50 / Tyrosinase inhibition (%): L-tyrosine substrate; for Tyrosinase inhibition (%): […] μM of compound", "experimental": "The tyrosinase inhibitory activity assays on the synthesized DHIT derivatives 1a – 1 k was performed using mushroom tyrosinase (mTYR), as previously described with minor modification. […] The optical densities of dopachrome produced during incubation were measured using a microplate reader (VersaMax™, Molecular Devices, Sunnyvale, CA, USA) at 492 nm. […] All experiments were conducted in triplicate. To calculate the tyrosinase inhibitory activities, the following formula was used: % inhibition = [(1− (A/B)) × 100], where A is test sample optical density and B is the optical density of the non-treated control.\nIC50 values were calculated by plotting linear regression curves of percentage inhibitions versus derivative concentrations. The negative control was obtained by adding dimethyl sulfoxide (DMSO) instead of a DHIT derivative."}, "mushroom tyrosinase": {"molecular_target": "mushroom tyrosinase", "design": "method as in PMID 29521165", "settings": "cited from earlier work"}},
  "note": "Where two headings read alike, the source gives them in different places.",
  "data": [
    {"smiles": "COc1ccc(/C=c2\\sc3n(c2=O)CCN=3)cc1", "note": "[Compound 1 g, (Z)-2-(4-Methoxybenzylidene)-5,6-dihydroimidazo[2,1-b]thiazol-3(2H)-one]", "values": [
      {"measurement": "IC50", "setting": "[1]", "value": "> 100", "unit": "µM"}
    ]},
    {"smiles": "COc1ccc(/C=c2\\sc3n(c2=O)CCN=3)c(OC)c1", "note": "[Compound 1 h, (Z)-2-(2,4-Dimethoxybenzylidene)-5,6-dihydroimidazo[2,1-b]thiazol-3(2H)-one]", "values": [
      {"measurement": "IC50", "setting": "[1]", "value": "> 100", "unit": "µM"}
    ]},
    {"smiles": "COc1cc(/C=c2\\sc3n(c2=O)CCN=3)cc(OC)c1OC", "note": "[Compound 1 k, (Z)-2-(3,4,5-Trimethoxybenzylidene)-5,6-dihydroimidazo[2,1-b]thiazol-3(2H)-one]", "values": [
      {"measurement": "IC50", "setting": "[1]", "value": "> 100", "unit": "µM"}
    ]},
    {"smiles": "O=c1/c(=C/c2ccc(O)cc2)sc2n1CCN=2", "note": "[Compound 1a, (Z)-2-(4-Hydroxybenzylidene)-5,6-dihydroimidazo[2,1-b]thiazol-3(2H)-one]", "values": [
      {"measurement": "mushroom tyrosinase inhibition compared with kojic acid", "setting": "[1]", "value": "inhibited mTYR more than kojic acid"},
      {"measurement": "IC50", "setting": "[1]", "value": "36.1 ± 3.9", "unit": "µM"},
      {"measurement": "fold stronger tyrosinase inhibitor than kojic acid", "setting": "[1]; ratio of IC50 values", "value": 2.3, "unit": "fold"}
    ]},
    {"smiles": "O=c1/c(=C/c2ccc(O)c(O)c2)sc2n1CCN=2", "note": "[Compound 1c, (Z)-2-(3,4-Dihydroxybenzylidene)-5,6-dihydroimidazo[2,1-b]thiazol-3(2H)-one]", "values": [
      {"measurement": "IC50", "setting": "[1]", "value": "> 100", "unit": "µM"}
    ]},
    {"smiles": "COc1cc(/C=c2\\sc3n(c2=O)CCN=3)ccc1O", "note": "[Compound 1d, (Z)-2-(4-Hydroxy-3-methoxybenzylidene)-5,6-dihydroimidazo[2,1-b]thiazol-3(2H)-one]", "values": [
      {"measurement": "Tyrosinase inhibition (%)", "setting": "[1]; […] µM", "value": "7.83 ± 2.29", "unit": "%"},
      {"measurement": "IC50", "setting": "[1]", "value": "> 100", "unit": "µM"}
    ]},
    {"smiles": "CCOc1cc(/C=c2\\sc3n(c2=O)CCN=3)ccc1O", "note": "[Compound 1e, (Z)-2-(3-Ethoxy-4-hydroxybenzylidene)-5,6-dihydroimidazo[2,1-b]thiazol-3(2H)-one]", "values": [
      {"measurement": "Tyrosinase inhibition (%)", "setting": "[1]; […] µM", "value": "3.90 ± 2.65", "unit": "%"},
      {"measurement": "IC50", "setting": "[1]", "value": "> 100", "unit": "µM"}
    ]},
    {"smiles": "COc1ccc(/C=c2\\sc3n(c2=O)CCN=3)cc1OC", "note": "[Compound 1i, (Z)-2-(3,4-Dimethoxybenzylidene)-5,6-dihydroimidazo[2,1-b]thiazol-3(2H)-one]", "values": [
      {"measurement": "Tyrosinase inhibition (%)", "setting": "[1]", "value": "low or no mTYR inhibitory activity"},
      {"measurement": "IC50", "setting": "[1]", "value": "> 100", "unit": "µM"}
    ]},
    {"smiles": "COc1cc(/C=c2\\sc3n(c2=O)CCN=3)cc(OC)c1O", "note": "[Compound 1j, (Z)-2-(4-Hydroxy-3,5-dimethoxybenzylidene)-5,6-dihydroimidazo[2,1-b]thiazol-3(2H)-one]", "values": [
      {"measurement": "Tyrosinase inhibition (%)", "setting": "[1]", "value": "24.43 ± 1.50", "unit": "%"},
      {"measurement": "IC50", "setting": "[1]", "value": "> 100", "unit": "µM"}
    ]},
    {"smiles": "[H]/N=C1/NC(=O)C(=Cc2ccc(OC)c(O)c2)S1", "note": "[MHY773, (Z)-5-(3-hydroxy-4-methoxybenzylidene)-2-iminothiazolidin-4-one]", "values": [
      {"measurement": "IC50", "setting": "mushroom tyrosinase; diphenolase", "value": 8.06, "unit": "µM"},
      {"measurement": "IC50", "setting": "mushroom tyrosinase; monophenolase", "value": 2.87, "unit": "µM"}
    ]},
    {"smiles": "O=c1cc(CO)occ1O", "note": "[kojic acid, reference compound]", "values": [
      {"measurement": "Tyrosinase inhibition (%)", "setting": "[1]; […] µM", "value": 30, "unit": "%"},
      {"measurement": "Tyrosinase inhibition (%)", "setting": "[1]; listed as KA, […] µM", "value": "30.26 ± 0.55", "unit": "%"}
    ]}
  ]
}
